Experimental data: patent US10631540B2, “Plant disease control composition, and plant disease control method” (Sumitomo Chemical Company, Limited, priority 2015, dated 2020)

What was measured:
[1] = test system: Pythium damping-off pathogen (Pythium irregulare); experiment: Soybean seed treatment test against Pythium damping-off (Test Example 1); type: in vivo; settings: soybean (Hatayutaka) seed treatment; dose rate gai/100 kg seed where present: ethaboxam 3.75, metalaxyl 1.0, oxathiapiprolin 3.75; grown 15° C. 5 days then 25° C. 10 days
Method: An acetone solution containing the compounds was prepared such that the amounts of compounds to be treated for seeds were set to the dose rate listed in Table 1. 10 g of seeds of soybean (Hatayutaka) and 80 μl of the acetone solution were added to a plastic container, the container was covered with a lid and then shaken, and then the seeds taken out of the container were left overnight, thereby obtaining treated seeds. A plastic pot was filled with culture soil, and the treated seeds were sowed and then were covered with culture soil mixed with seeds of grass turf which was infected with Pythium damping-off pathogen (Pythium irregulare). After irrigation, the seeds were grown at 15° C. for 5 days and then grown at 25° C. for 10 days. This area was set to a treated area. Further, soybeans were grown in the same manner as in the treated area except that a chemical agent was not applied to the seeds. This area was set to a non-treated area. The incidence of disease of plants in the treated area and the non-treated area were calculated using the following “Equation 1”. The control values were calculated using the following “Equation 2”. […] A: Incidence of disease of plants of non-treated area B: Incidence of disease of plants of treated area

[2] = test system: Pythium damping-off pathogen (Pythium ultimum); experiment: Soybean seed treatment test against Pythium damping-off (Test Example 2); type: in vivo; settings: soybean (Hatayutaka) seed treatment; dose rate gai/100 kg seed where present: ethaboxam 3.75, metalaxyl 1.0, oxathiapiprolin 3.75; grown 15° C. 5 days then 25° C. 10 days
Method: An acetone solution containing the compounds was prepared such that the amounts of compounds to be treated for seeds were set to the dose rate listed in Table 2. 10 g of seeds of soybean (Hatayutaka) and 80 μl of the acetone solution were added to a plastic container, the container was covered with a lid and then shaken, and then the seeds taken out of the container were left overnight, thereby obtaining treated seeds. A plastic pot was filled with culture soil, and the treated seeds were sowed and then were covered with culture soil mixed with seeds of grass turf which was infected with Pythium damping-off pathogen (Pythium ultimum). After irrigation, the seeds were grown at 15° C. for 5 days and then grown at 25° C. for 10 days. This area was set to a treated area. Further, soybeans were grown in the same manner as in the treated area except that a chemical agent was not applied to the seeds. This area was set to a non-treated area. The incidence of disease of plants in the treated area and the non-treated area were calculated using the above-described “Equation 1”. The control values were calculated using the above-described “Equation 2”.

Compound	Control value (%) [1] [%]	Control value (%) [2] [%]
Cc1cc(C(F)(F)F)nn1CC(=O)N1CCC(c2nc(C3=NOC(c4c(F)cccc4F)C3)cs2)CC1 (stereo not drawn) [Oxathiapiprolin, oxathiapiprolin]	6	14
COCC(=O)N(c1c(C)cccc1C)C(C)C(=O)OC (racemic) [Metalaxyl, metalaxyl]	6	0
CCNc1nc(CC)c(C(=O)NC(C#N)c2cccs2)s1 (stereo not drawn) [Ethaboxam, ethaboxam]	9	14
